Data as given in US20260297060A1, “COMPOUNDS FOR THE DEGRADATION OF MUTANT BRAF” (C4 THERAPEUTICS, INC., priority 2023, published 2026).

Experiments:
[1] = test system: A375 human melanoma xenografts; test: Example 8 efficacy study in A375 human melanoma xenografts (tumor volume, T/C, TGI); assay type: in vivo, BALB/c nude mice; settings: 10 mg/kg, p.o.
Experimental: For efficacy study, agents were tested in the A375 human melanoma xenografts model. Compound 8, Compound 26, and Compound 38 were administered to BALB/c nude mice bearing A375 xenografts from day 0 and dosed p.o. twice per day (BID). Compound 8 and Compound 26 were dosed at 10 mg/kg for 21 days. Compound 38 was dosed at 10 mg/kg for 10 days. The known BRAF inhibitor encorafenib was used as a positive control. encorafenib was administered from day 1 and dosed p.o. daily (QD) for 21 days and dosed at 35 mg/kg.
The A375 tumor cells were maintained in vitro in DMEM medium supplemented with […] and 1% Penicillin-Streptomycin at 37° C. in an atmosphere of 5% CO2 in air. The tumor cells were routinely subcultured twice weekly. The cells growing in an exponential growth phase were harvested and counted for tumor inoculation.
Each mouse was inoculated subcutaneously at the right flank with A375 cells (5×10^6) in 0.2 mL of PBS supplemented with Matrigel (PBS:Matrigel=1:1) for tumor development. Animals were grouped for treatment 16 days after tumor inoculation when the average tumor volume reached 234 mm^3 for efficacy study and 382 mm^3 for PKPD study. The test articles administration and the animal numbers in each group are shown in the above experimental tables.
Prior to the onset of drug treatment, mice were measured for tumor size in two dimensions using a caliper, and the tumor volume (mm^3) was calculated using formula V=0.5 a×b^2 where a and b are the long and short diameters of the tumor in mm, respectively. Mice were randomized into different treatment groups based on the tumor volume.
The major endpoint was to see if the tumor growth could be delayed or mice could be cured. The tumor size was then used for calculations of T/C value. The T/C value (in percent) is an indication of antitumor effectiveness; T and C are the mean volumes of the treated and control groups, respectively on specified day.
TGI was calculated for each group using the formula: TGI (%)=[1−(Ti−T0)/(Ci−C0)]×100; Ti is the average tumor volume of a treatment group on a given day, T0 is the average tumor volume of the treatment group on the day of treatment start, Ci is the average tumor volume of the vehicle control group on the same day with Ti, and C0 is the average tumor volume of the vehicle group on the day of treatment start.

[2] = test system: luciferase-tagged A375 human melanoma CNS tumor; test: Survival of mice in CNS tumor study (BRAF intracranial model) (Example 12); assay type: in vivo, human A375 CNS xenograft in mice; settings: versus encorafenib
Experimental: FIG. 48 is the survival curve for the mice after administration of vehicle, encorafenib, Compound 26, Compound 141 in CNS tumor study. The x-axis is time measured in days and the y-axis is probability of survival. The experiment was conducted as described in Example 12.
FIG. 85 is an extended survival curve for the BRAF intracranial model experiment after administration of vehicle, encorafenib, Compound 26, and Compound 141 in the CNS tumor study. The x-axis is time measured in days and the y-axis is probability of survival. The experiment was conducted as described in Example 12.

[3] = test system: A375 human melanoma cancer cell derived xenografts, intracranial; test: Example 12 efficacy study, intracranial A375-luciferase CNS model: survival; assay type: in vivo, BALB/c nude mice; settings: 10 mg/kg PO/BID; for survival rate / mice that have demonstrated end point cut offs and were terminated: as of day 75; for median survival: dosing stopped on day 120, survival curve up to 200 days; for mice that have demonstrated end point cut offs and were terminated: groups of 8 mice
Experimental: For the efficacy study, agents were tested in A375 human melanoma cancer cell derived xenografts (CDX). This cell line was isolated from the primary melanoma of a person and is known to have a homozygous BRAF V600E mutation. The A375 tumor cells were maintained in vitro in DMEM medium supplemented with 10% fetal bovine serum and 1% Penicillin-Streptomycin at 37° C. in an atmosphere of 5% CO2 in air. The tumor cells were routinely subcultured twice weekly. The cells growing in an exponential growth phase were harvested and counted for tumor inoculation.
For this CNS study, A375 cells with a luciferase tag for tracking tumor cell signal, were injected intracranially into 6-8-week-old female BALB/c nude mice (Zhejiang Vital River Laboratory Animal Co., LTD. Beijing, China). The mice were anaesthetized, restrained, and sterilized prior to surgery. A sagittal cut was made above the anterior parietal and occipital bone with sterilized scalpel, the skull was unrevealed and cleaned with cotton bud, in this case the anterior fontanel could be available. A 2 mm hole was created to the right of the anterior fontanel and 0.5 mm ahead of the coronal on the skull with a cranial drill. Cell suspensions in 20% Matrigel were mixed and aspirated into injector carefully to avoid bubbles and wiped to avoid extracranial tumor genesis. The needle was inserted vertically into the cranial hole and the cell mixture was slowly injected for 2 minutes and held for another minute to decrease the drainage of the cell suspension. The wound was closed, and a subcutaneous injection of 5 mg/kg Meloxicam was given to relieve the pain and continued for 3 days. The mice were monitored closely until they woke up after the surgery. During the study, the care and use of animals was conducted in accordance with the regulations of the Association for Assessment and Accreditation of Laboratory Animal Care (AAALAC). After inoculation, the animals were checked daily for morbidity and mortality. At the time of routine monitoring, the animals would be checked for any effects of tumor growth and treatments on normal behavior such as mobility, food and water consumption, body weight gain/loss, eye/hair matting, and any other abnormal effect.
The administration of the test agents began three days after inoculation. CNS tumor-bearing mice were randomly assigned to groups of 8 mice and administered Compound 26 at 10 mg/kg orally (PO) twice a day (BID), Compound 141 at 10 mg/kg PO/BID, encorafenib at 35 mg/kg once a day orally, (PO/QD), or the vehicle alone PO/BID. Measurements for the presence of the A375 luciferase (CRL-1619-LUC2, ATCC, Manassas, VA, USA) cells within the CNS were done with IVIS Lumina III machine. Images were collected twice weekly to follow the growth of the models. The tumor-bearing mice were weighed and intraperitoneally administered luciferin (Perkin Elmer Inc-122799) at a dosage of 150 mg/kg. After 10 min, mice were pre-anesthetized with the mixture gas of oxygen and isoflurane. The bioluminescence value at 15 min post luciferin injection was recorded as the final value and plotted. The endpoint for individual mice was reached when the mouse body weight decreased by 20% when compared to their starting weight.

Row | Compound | T/C ([1]; BID × 21 days, PG-D21) [%] | TGI ([1]; BID × 21 days, PG-D21) [%] | Tumor Size on PG-D21 (Mean ± SEM) ([1]; BID × 21 days, PG-D21) [mm^3] | Tumor Volume (mean ± SEM) ([1]; BID × 21 days, day 0) [mm^3] | Tumor Volume (mean ± SEM) ([1]; BID × 21 days, day 3) [mm^3] | Tumor Volume (mean ± SEM) ([1]; BID × 21 days, day 6) [mm^3] | Tumor Volume (mean ± SEM) ([1]; BID × 21 days, day 9) [mm^3] | Tumor Volume (mean ± SEM) ([1]; BID × 21 days, day 13) [mm^3] | Tumor Volume (mean ± SEM) ([1]; BID × 21 days, day 17) [mm^3] | Tumor Volume (mean ± SEM) ([1]; BID × 21 days, day 21) [mm^3] | survival of CNS tumor-bearing mice compared with encorafenib [2] | survival rate [3] [%] | median survival [3] [days] | mice that have demonstrated end point cut offs and were terminated [3] | other results
1 | CCN(C)S(=O)(=O)Nc1ccc(F)c(Oc2ccc3ncn(C4CC5(CCN(C6CCC(c7cc8c(cc7F)c(N7CCC(=O)NC7=O)nn8C)CC6)CC5)C4)c(=O)c3c2)c1C#N (single isomer, unassigned) [Compound 8, 6-[2-cyano-3-[[ethyl(methyl)sulfamoyl]amino]-6-fluoro-phenoxy]-3-[7-[4-[3-(2,4-dioxohexahydropyrimidin-1-yl)-5-fluoro-1-methyl-indazol-6-yl]cyclohexyl]-7-azaspiro[3.5]nonan-2-yl]-4-oxo-quinazoline] | 1.29 | 114.48 | 22 ± 3 | 234 ± 7 | 185 ± 6 | 105 ± 9 | 57 ± 4 | 32 ± 4 | 28 ± 3 | 22 ± 3 |  |  |  |  | 
2 | CCN(C)S(=O)(=O)Nc1ccc(F)c(Oc2ccc3ncn([C@H]4COC5(CCN(C6CC7(C6)CN(c6cc8c(cc6F)c(N6CCC(=O)NC6=O)nn8C)C7)CC5)C4)c(=O)c3c2)c1C#N [Compound 26, (3R)-3-[6-[2-cyano-3-[[ethyl(methyl)sulfamoyl]amino]-6-fluoro-phenoxy]-4-oxo-quinazolin-3-yl]-8-[2-[3-(2,4-dioxohexahydropyrimidin-1-yl)-5-fluoro-1-methyl-indazol-6-yl]-2-azaspiro[3.3]heptan-6-yl]-1-oxa-8-azaspiro[4.5]decane] | 0.97 | 114.89 | 16 ± 2 | 234 ± 7 | 148 ± 10 | 57 ± 4 | 33 ± 3 | 21 ± 2 | 18 ± 1 | 16 ± 2 | lived significantly longer | 75 | 91 | two | 
3 | CCN(C)S(=O)(=O)Nc1ccc(F)c(Oc2ccc3ncn(C4CC5(CCN(C6CC7(C6)CN(c6cc8c(cc6F)c(N6CCC(=O)NC6=O)nn8C)C7)CC5)C4)c(=O)c3c2)c1C#N (centres unmarked) [Compound 141, 6-[2-cyano-3-[[ethyl(methyl)sulfamoyl]amino]-6-fluoro-phenoxy]-3-[7-[2-[3-(2,4-dioxohexahydropyrimidin-1-yl)-5-fluoro-1-methyl-indazol-6-yl]-2-azaspiro[3.3]heptan-6-yl]-7-azaspiro[3.5]nonan-2-yl]-4-oxo-quinazoline] |  |  |  |  |  |  |  |  |  |  | lived significantly longer | 75 | 89.5 | 2 mice | 
4 | CCN(C)S(=O)(=O)Nc1ccc(F)c(Oc2ccc3ncn([C@H]4COC5(CCC(N6CCC(c7cc8c(cc7F)c(N7CCC(=O)NC7=O)nn8C)C(F)(F)C6)CC5)C4)c(=O)c3c2)c1C#N (single isomer, unassigned) [Compound 38] |  |  |  |  |  |  |  |  |  |  |  |  |  |  | T/C ([1]; BID × 10 days, PG-D9): 4.30%; TGI ([1]; BID × 10 days, PG-D9): 134.38%; Tumor Size on PG-D9 (mean ± SEM) ([1]; BID × 10 days, PG-D9): 35 ± 3 mm^3; Tumor Volume (mean ± SEM) ([1]; BID × 10 days, day 0): 234 ± 7 mm^3; Tumor Volume (mean ± SEM) ([1]; BID × 10 days, day 3): 134 ± 7 mm^3; Tumor Volume (mean ± SEM) ([1]; BID × 10 days, day 6): 67 ± 7 mm^3; Tumor Volume (mean ± SEM) ([1]; BID × 10 days, day 9): 35 ± 3^b mm^3
